According to patent US20220334127A1, “IN VITRO METHOD FOR OBTAINING CLINICAL DATA IN PATIENTS SUFFERING FROM AN INFLAMMATORY DISEASE” (FUNDACIÓN PARA LA FORMACIÓN E INVESTIGACIÓN SANITARIAS DE …, priority 2019, published 2022):

What was measured:
NLRP3 inflammasome = test: IL-1β release from BMDMs pre-treated, washed, LPS-primed and stimulated with nigericin; format: cell-based, mouse; details: P2X7-receptor-deficient macrophages (FIG. 6c)
Method: FIG. 6. P2X7 receptor stimulation induces an impairment of the NLRP3 inflammasome in monocytes. (a-b) Percentage of monocytes with ASC-specks (a) and release of […] from PBMCs (b) isolated from healthy donor blood samples treated with ATP (3 mM, 30 min; ATP-pre), then washed and primed with or without LPS (1 μg/ml, 2 h) and then treated for 20 min with ATP (3 mM; ATP-post) or nigericin (10 μM) as indicated. (c) IL-1β release from wild type or P2rx7^−/− BMDMs treated as in a, but with 4 h LPS priming and 30 min of ATP or nigericin. (d) IL-1β release from wild type or P2rx7^−/− BMDMs treated for 30 min with antimycin A (5 μM) or FCCP (1 μM) and then washed and primed with LPS (1 μg/ml, 4 h) and then stimulated with nigericin (10 μM, 30 min) as indicated. (e) Expression of Nrlp3 and Illb genes analyzed by quantitative PCR from wild type or P2rx7^−/− BMDMs treated with ATP (3 mM, 30 min; ATP-pre), then washed and primed with or without LPS (100 ng/ml, 4 h). (f) Kaplan-Meier representation of wild type (top) or P2rx7^−/− (bottom) mice survival after sham operation (dotted line), or CLP operation (continuous line); some mice groups were i.p. injected with ATP (0.5 mg/g) 30 min before operation (dashed lines). Wild type CLP n=10, CLP+ATP n=8, sham n=4, sham+ATP n=4; P2rx7^−/− CLP n=4, CLP+ATP n=6, sham n=3. (g) IL-1β from peritoneal lavage (left) or bacterial load in blood (right) from wild type sham, CLP or CLP+ATP mice after 24 h. Each dot represents a single independent experiment (c,d), a sample from an individual healthy donor (a,b,e) or a single mouse (g); average±standard error is represented in panels a-e,g; *p<0.05; **p<0.01; ns, no significant difference (p>0.05); Mann-Whitney test was used for a,b,d,e; Kruskal-Wallis test was used for c; Long-rank test for f.
FIG. 7. Mitochondrial dysfunction mediates P2X7 receptor induced NLRP3 inflammasome impairment. (a) Mitochondrial membrane depolarization in BMDMs treated with ATP (3 mM, 30 min), then washed out and incubated for the indicated times in the absence or presence of LPS (1 μg/ml) as indicated. […] (e) Representative histogram plot of HIF-1α staining (left) or quantification of HIF-1α mean intensity fluorescence increase (ΔMFI, right) in monocytes isolated from healthy donor blood samples and treated or not with ATP (1 mM, 30 min) in the presence or absence of AZ11645373 (10 μM) or PDTC (10 μM), and then washed and cultured for 2 h; non-stained monocytes (light grey, left). […] (g) Expression of HIF1A gene analyzed by quantitative PCR from control surgery group and septic patients PBMCs; septic patients are separated into NLRP3 non-immunocompromised (grey bar) and immunocompromised (black bar). […]

HIF-1α = HIF-1α staining in human monocytes by flow cytometry; format: cell-based; details: ATP 1 mM 30 min, washed, cultured 2 h (FIG. 7e)
Method: Human peripheral blood mononuclear cells (PBMCs) were isolated from blood within one hour after extraction using Ficoll histopaque 1077 (Sigma-Aldrich). […] Cells were treated with ATP (Sigma-Aldrich), antimycin A (Sigma-Aldrich) or FCCP (Sigma-Aldrich) in the presence or absence of PDTC (Sigma-Aldrich) or echinomycin (Sigma-Aldrich) in E-total buffer (147 mM NaCl, 10 mM HEPES, 13 mM glucose, 2 mM CaCl2), 1 mM MgCl2, and 2 mM KCl) and then washed and stimulated with E. coli LPS O55:B5 in their respective complete media. […] After LPS treatment, cells were incubated with P2X7 modulating nanobodies, the specific P2X7 receptor antagonist A438079 or AZ11645373 (Tocris), and then subsequently stimulated with ATP or nigericin (Sigma-Aldrich) in E-total buffer. Times and concentrations for the reagents used are specified in the figure legends.
HIF-1α expression was detected in CD14^+ monocytes using Alexa Fluor-647 mouse anti-human HIF-1α (BD Biosciences, Clone 54) at 1:1000 dilution.

P2X7 receptor = test: Cecal ligation and puncture (CLP) sepsis model with i.p. ATP before operation; format: in vivo, mouse; details: wild type mice, ATP pre-treatment (FIG. 6g)
Method: FIG. 6. P2X7 receptor stimulation induces an impairment of the NLRP3 inflammasome in monocytes. (a-b) Percentage of monocytes with ASC-specks (a) and release of […] from PBMCs (b) isolated from healthy donor blood samples treated with ATP (3 mM, 30 min; ATP-pre), then washed and primed with or without LPS (1 μg/ml, 2 h) and then treated for 20 min with ATP (3 mM; ATP-post) or nigericin (10 μM) as indicated. (c) IL-1β release from wild type or P2rx7^−/− BMDMs treated as in a, but with 4 h LPS priming and 30 min of ATP or nigericin. […] (e) Expression of Nrlp3 and Illb genes analyzed by quantitative PCR from wild type or P2rx7^−/− BMDMs treated with ATP (3 mM, 30 min; ATP-pre), then washed and primed with or without LPS (100 ng/ml, 4 h). […]
The University of Murcia Animal Research Ethical Committee approved animal procedures (ref 5/2014) and then the Animal Health Service of the General Directorate of Fishing and Farming of the Council of Murcia (Servicio de Sanidad Animal, Dirección General de Ganaderia y Pesca, Consejeria de Agricultura y Agua Región de Murcia) approved animal procedures with ref A1320140201. […] Buprenorphine (0.3 mg/kg) was administered intraperitoneally at the time of surgery and mice were monitored continuously until recovery from anesthesia. […] Then the number of bacterial colonies was counted and expressed as CFU/ml of serum.

Nc1ncnc2c1ncn2[C@@H]1O[C@H](COP(=O)(O)OP(=O)(O)OP(=O)(O)O)[C@@H](O)[C@H]1O [ATP, adenosine triphosphate]
NLRP3 inflammasome inhibition when ATP applied before LPS priming (NLRP3 inflammasome): did not present NLRP3 inflammasome inhibition
HIF-1α expression by the agent itself (HIF-1α): increased
bacterial load in the blood (P2X7 receptor; 24 h after CLP): increased
release of IL-1β into the mouse peritoneum (P2X7 receptor; peritoneal lavage 24 h after CLP): decreased
